System: SR (NPM-ALK) cells
Assay: Growth inhibition IC50 in ALCL SR cells (CCK8/WST, 72 hours)
Assay type: cell-based
Conditions: 72 h, SR cells, WST; Brigatinib-based PROTAD molecules (Table 3)
Description: SR (NPM-ALK) and NCI-H2228 (EML4-ALK, V3) cells were purchased from ATCC. […] All Cells were cultured in RPMI1640 medium with 10% FBS and Penicillin-Streptomycin in 37° C. incubator with 5% CO2.
Cells were seeded at specific density in 96 well plates one day before treatment. […] Viable cells were measured via CCK8 reagent and IC50s were calculated via Prism Graphad. Experiments were repeated at least three times.

In order of falling IC50:
1. COc1cc(N2CCC(NC(=O)CCOCCOCCOCCOCCOCCNc3cccc4c3C(=O)N(C3CCC(=O)NC3=O)C4=O)CC2)ccc1Nc1ncc(Cl)c(Nc2ccccc2P(C)(C)=O)n1 (stereo not drawn) [SIAIS151117, N-(1-(4-((5-chloro-4-((2-(dimethylphosphoryl)phenyl)amino)pyrimidin-2-yl)amino)-3-methoxyphenyl)piperidin-4-yl)-1-((2-(2,6-dioxopiperidin-3-yl)-1,3-dioxoisoindolin-4-yl)amino)-3,6,9,12,15-pentaoxaoctadecan-18-amide]  30.9 ± 21.3 nM
2. COc1cc(N2CCC(N3CCN(C(=O)CCc4cccc5c4C(=O)N(C4CCC(=O)NC4=O)C5=O)CC3)CC2)ccc1Nc1ncc(Cl)c(Nc2ccccc2P(C)(C)=O)n1 (stereo not drawn) [SIAIS219158, 4-(3-(4-(1-(4-((5-chloro-4-((2-(dimethylphosphoryl)phenyl)amino)pyrimidin-2-yl)amino)-3-methoxyphenyl)piperidin-4-yl)piperazin-1-yl)-3-oxopropyl)-2-(2,6-dioxopiperidin-3-yl)isoindoline-1,3-dione]  30.3 ± 3.8 nM
3. COc1cc(N2CCC(NCCCCNc3cccc4c3C(=O)N(C3CCC(=O)NC3=O)C4=O)CC2)ccc1Nc1ncc(Cl)c(Nc2ccccc2P(C)(C)=O)n1 (stereo not drawn) [SIAIS220026, 4-((4-((1-(4-((5-chloro-4-((2-(dimethylphosphoryl)phenyl)amino)pyrimidin-2-yl)amino)-3-methoxyphenyl)piperidin-4-yl)amino)butyl)amino)-2-(2,6-dioxopiperidin-3-yl)isoindoline-1,3-dione]  7.4 nM
4. COc1cc(N2CCC(NC(=O)CCCNc3cccc4c3CN(C3CCC(=O)NC3=O)C4=O)CC2)ccc1Nc1ncc(Cl)c(Nc2ccccc2P(C)(C)=O)n1 (stereo not drawn) [SIAIS219128, N-(1-(4-((5-chloro-4-((2-(dimethylphosphoryl)phenyl)amino)pyrimidin-2-yl)amino)-3-methoxyphenyl)piperidin-4-yl)-4-((2-(2,6-dioxopiperidin-3-yl)-1-oxoisoindolin-4-yl)amino)butanamide]  6.67 ± 1 nM
5. COc1cc(N2CCC(N3CCN(C(=O)CCCNc4cccc5c4CN(C4CCC(=O)NC4=O)C5=O)CC3)CC2)ccc1Nc1ncc(Cl)c(Nc2ccccc2P(C)(C)=O)n1 (stereo not drawn) [SIAIS219155, 3-(4-((4-(4-(1-(4-((5-chloro-4-((2-(dimethylphosphoryl)phenyl)amino)pyrimidin-2-yl)amino)-3-methoxyphenyl)piperidin-4-yl)piperazin-1-yl)-4-oxobutyl)amino)-1-oxoisoindolin-2-yl)piperidine-2,6-dione]  4.34 ± 0.4 nM
6. COc1cc(N2CCC(N3CCN(CCNc4cccc5c4C(=O)N(C4CCC(=O)NC4=O)C5=O)CC3)CC2)ccc1Nc1ncc(Cl)c(Nc2ccccc2P(C)(C)=O)n1 (stereo not drawn) [SIAIS220027, 4-((2-(4-(1-(4-((5-chloro-4-((2-(dimethylphosphoryl)phenyl)amino)pyrimidin-2-yl)amino)-3-methoxyphenyl)piperidin-4-yl)piperazin-1-yl)ethyl)amino)-2-(2,6-dioxopiperidin-3-yl)isoindoline-1,3-dione]  3.8 nM
7. COc1cc(N2CCC(NC(=O)CCCCNc3cccc4c3CN(C3CCC(=O)NC3=O)C4=O)CC2)ccc1Nc1ncc(Cl)c(Nc2ccccc2P(C)(C)=O)n1 (stereo not drawn) [SIAIS219152, N-(1-(4-((5-chloro-4-((2-(dimethylphosphoryl)phenyl)amino)pyrimidin-2-yl)amino)-3-methoxyphenyl)piperidin-4-yl)-5-((2-(2,6-dioxopiperidin-3-yl)-1-oxoisoindolin-4-yl)amino)pentanamide]  3.78 ± 0.4 nM
8. COc1cc(N2CCC(N3CCN(C(=O)CCCCCCNc4cccc5c4CN(C4CCC(=O)NC4=O)C5=O)CC3)CC2)ccc1Nc1ncc(Cl)c(Nc2ccccc2P(C)(C)=O)n1 (stereo not drawn) [SIAIS219124, 3-(4-((7-(4-(1-(4-((5-chloro-4-((2-(dimethylphosphoryl)phenyl)amino)pyrimidin-2-yl)amino)-3-methoxyphenyl)piperidin-4-yl)piperazin-1-yl)-7-oxoheptyl)amino)-1-oxoisoindolin-2-yl)piperidine-2,6-dione]  2.47 ± 0.6 nM

Same assay, conditions: SR cells, WST; Alectinib based ALK PROTAD compounds (Table 4)

In order of falling IC50:
1. CCc1cc2c(cc1N1CCC(N3CCN(C(=O)CCCCCCCCC(=O)N[C@H](C(=O)N4C[C@H](O)C[C@H]4C(=O)NCc4ccc(-c5scnc5C)cc4)C(C)(C)C)CC3)CC1)C(C)(C)c1[nH]c3cc(C#N)ccc3c1C2=O [SIAIS219016, (2S,4R)-1-((S)-2-(10-(4-(1-(3-cyano-9-ethyl-6,6-dimethyl-11-oxo-6,11-dihydro-5H-benzo[b]carbazol-8-yl)piperidin-4-yl)piperazin-1-yl)-10-oxodecanamido)-3,3-dimethylbutanoyl)-4-hydroxy-N-(4-(4-methylthiazol-5-yl)benzyl)pyrrolidine-2-carboxamide]  80.8 nM
2. CCc1cc2c(cc1N1CCC(NC(=O)CCOCCOCCOCCOCCNc3cccc4c3C(=O)N(C3CCC(=O)NC3=O)C4=O)CC1)C(C)(C)c1[nH]c3cc(C#N)ccc3c1C2=O (stereo not drawn) [SIAIS219024, N-(1-(3-cyano-9-ethyl-6,6-dimethyl-11-oxo-6,11-dihydro-5H-benzo[b]carbazol-8-yl)piperidin-4-yl)-1-((2-(2,6-dioxopiperidin-3-yl)-1,3-dioxoisoindolin-4-yl)amino)-3,6,9,12-tetraoxapentadecan-15-amide]  73.1 nM
3. CCc1cc2c(cc1N1CCN(C(=O)CCCCC(=O)N[C@H](C(=O)N3C[C@H](O)C[C@H]3C(=O)NCc3ccc(-c4scnc4C)cc3)C(C)(C)C)CC1)C(C)(C)c1[nH]c3cc(C#N)ccc3c1C2=O [SIAIS164095, (2S,4R)-1-((S)-2-(6-(4-(3-cyano-9-ethyl-6,6-dimethyl-11-oxo-6,11-dihydro-5H-benzo[b]carbazol-8-yl)piperazin-1-yl)-6-oxohexanamido)-3,3-dimethylbutanoyl)-4-hydroxy-N-(4-(4-methylthiazol-5-yl)benzyl)pyrrolidine-2-carboxamide]  71.3 nM
4. CCc1cc2c(cc1N1CCC(N3CCN(C(=O)CCOCCOCCOCCOCCNc4cccc5c4C(=O)N(C4CCC(=O)NC4=O)C5=O)CC3)CC1)C(C)(C)c1[nH]c3cc(C#N)ccc3c1C2=O (stereo not drawn) [SIAIS219019, 8-(4-(4-(1-((2-(2,6-dioxopiperidin-3-yl)-1,3-dioxoisoindolin-4-yl)amino)-3,6,9,12-tetraoxapentadecan-15-oyl)piperazin-1-yl)piperidin-1-yl)-9-ethyl-6,6-dimethyl-11-oxo-6,11-dihydro-5H-benzo[b]carbazole-3-carbonitrile]  38.3 nM
5. CCc1cc2c(cc1N1CCC(NC(=O)CCCNc3cccc4c3C(=O)N(C3CCC(=O)NC3=O)C4=O)CC1)C(C)(C)c1[nH]c3cc(C#N)ccc3c1C2=O (stereo not drawn) [SIAIS219010, N-(1-(3-cyano-9-ethyl-6,6-dimethyl-11-oxo-6,11-dihydro-5H-benzo[b]carbazol-8-yl)piperidin-4-yl)-4-((2-(2,6-dioxopiperidin-3-yl)-1,3-dioxoisoindolin-4-yl)amino)butanamide]  31.1 nM
6. CCc1cc2c(cc1N1CCC(NC(=O)CCOCCOCCNc3cccc4c3C(=O)N(C3CCC(=O)NC3=O)C4=O)CC1)C(C)(C)c1[nH]c3cc(C#N)ccc3c1C2=O (stereo not drawn) [SIAIS219023]  29.3 nM
7. CCc1cc2c(cc1N1CCN(C(=O)CCNc3cccc4c3C(=O)N(C3CCC(=O)NC3=O)C4=O)CC1)C(C)(C)c1[nH]c3cc(C#N)ccc3c1C2=O (stereo not drawn) [SIAIS164029, 8-(4-(3-((2-(2,6-dioxopiperidin-3-yl)-1,3-dioxoisoindolin-4-yl)amino)propanoyl)piperazin-1-yl)-9-ethyl-6,6-dimethyl-11-oxo-6,11-dihydro-5H-benzo[b]carbazole-3-carbonitrile]  27.3 nM
8. CCc1cc2c(cc1N1CCC(N3CCN(C(=O)CNc4cccc5c4C(=O)N(C4CCC(=O)NC4=O)C5=O)CC3)CC1)C(C)(C)c1[nH]c3cc(C#N)ccc3c1C2=O (stereo not drawn) [SIAIS184194, 8-(4-(4-((2-(2,6-dioxopiperidin-3-yl)-1,3-dioxoisoindolin-4-yl)glycyl)piperazin-1-yl)piperidin-1-yl)-9-ethyl-6,6-dimethyl-11-oxo-6,11-dihydro-5H-benzo[b]carbazole-3-carbonitrile]  24.2 nM
9. CCc1cc2c(cc1N1CCC(N)CC1)C(C)(C)c1[nH]c3cc(C#N)ccc3c1C2=O [Alectinib Analogue B(SIAIS184193), 8-(4-aminopiperidin-1-yl)-9-ethyl-6,6-dimethyl-11-oxo-6,11-dihydro-5H-benzo[b]carbazole-3-carbonitrile]  14.7 nM

Target: T1, ALK protein in H3122 (EML4-ALK) cells (Homo sapiens, UniProt Q9UM73)
T1 construct: EML4 (Echinoderm microtubule-associated protein-like 4, Q9HC35) fusion partner, variant 1; host or cells: NCI-H3122 lung adenocarcinoma cells; the other entry of the earlier key: EML4 (Q9HC35, Echinoderm microtubule-associated protein-like 4)
Assay: Western blot of ALK protein level (degradation, DC50), ALK phosphorylation and downstream signaling in H3122 cells
Assay type: cell-based
Conditions: ALK protein degradation in H3122 cells

T1 sequence (Q9UM73 with tags, fused parts or gaps): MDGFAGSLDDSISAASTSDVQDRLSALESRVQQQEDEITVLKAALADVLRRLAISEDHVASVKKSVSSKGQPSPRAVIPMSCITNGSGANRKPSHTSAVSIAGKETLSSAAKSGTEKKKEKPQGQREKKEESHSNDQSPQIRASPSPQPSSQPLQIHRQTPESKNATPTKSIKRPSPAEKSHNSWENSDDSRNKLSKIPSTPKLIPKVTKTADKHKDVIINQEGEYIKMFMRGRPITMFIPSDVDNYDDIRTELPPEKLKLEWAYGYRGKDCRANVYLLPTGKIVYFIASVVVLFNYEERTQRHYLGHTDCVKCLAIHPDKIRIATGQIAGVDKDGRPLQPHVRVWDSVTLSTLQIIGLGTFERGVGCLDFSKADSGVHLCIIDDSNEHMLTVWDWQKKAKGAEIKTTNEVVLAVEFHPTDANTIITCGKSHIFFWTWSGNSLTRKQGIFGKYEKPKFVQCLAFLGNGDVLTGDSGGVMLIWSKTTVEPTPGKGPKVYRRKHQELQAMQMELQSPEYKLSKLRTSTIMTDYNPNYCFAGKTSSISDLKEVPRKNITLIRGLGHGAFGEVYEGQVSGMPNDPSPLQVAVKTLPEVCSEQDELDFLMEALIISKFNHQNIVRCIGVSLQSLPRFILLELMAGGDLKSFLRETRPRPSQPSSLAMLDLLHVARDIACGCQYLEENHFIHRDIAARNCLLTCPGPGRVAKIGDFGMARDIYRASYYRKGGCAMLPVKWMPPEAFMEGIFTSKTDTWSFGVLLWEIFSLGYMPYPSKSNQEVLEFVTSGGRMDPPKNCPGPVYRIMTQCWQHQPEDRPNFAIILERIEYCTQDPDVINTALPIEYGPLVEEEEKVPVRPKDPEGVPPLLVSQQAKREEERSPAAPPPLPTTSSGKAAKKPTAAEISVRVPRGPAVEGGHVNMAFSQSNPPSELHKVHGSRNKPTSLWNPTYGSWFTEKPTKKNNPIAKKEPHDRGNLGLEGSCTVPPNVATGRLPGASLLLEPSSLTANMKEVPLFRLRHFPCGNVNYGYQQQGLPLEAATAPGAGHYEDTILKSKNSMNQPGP

First: C[C@@H](Oc1cc(-c2cnn(C3CCN(C(=O)CNc4cccc5c4C(=O)N(C4CCC(=O)NC4=O)C5=O)CC3)c2)cnc1N)c1c(Cl)ccc(F)c1Cl (stereo partly drawn) [SIAIS151083, 4-((2-(4-(4-(6-amino-5-((R)-1-(2,6-dichloro-3-fluorophenyl)ethoxy)pyridin-3-yl)-1H-pyrazol-1-yl)piperidin-1-yl)-2-oxoethyl)amino)-2-(2,6-dioxopiperidin-3-yl)isoindoline-1,3-dione]
Second: C[C@@H](Oc1cc(-c2cnn(C3CCN(C(=O)CCCCNc4cccc5c4C(=O)N(C4CCC(=O)NC4=O)C5=O)CC3)c2)cnc1N)c1c(Cl)ccc(F)c1Cl (stereo partly drawn) [SIAIS151082, 4-((5-(4-(4-(6-amino-5-((R)-1-(2,6-dichloro-3-fluorophenyl)ethoxy)pyridin-3-yl)-1H-pyrazol-1-yl)piperidin-1-yl)-5-oxopentyl)amino)-2-(2,6-dioxopiperidin-3-yl)isoindoline-1,3-dione]
The DC50 of the first is higher: 10 to 50 nM for the first, 1 to 10 nM for the second.

Molecule `C[C@@H](Oc1cc(-c2cnn(C3CCN(C(=O)CCOCCOCCOCCOCCNc4cccc5c4C(=O)N(C4CCC(=O)NC4=O)C5=O)CC3)c2)cnc1N)c1c(Cl)ccc(F)c1Cl` (stereo partly drawn) [SIAIS151060, 4-((15-(4-(4-(6-amino-5-((R)-1-(2,6-dichloro-3-fluorophenyl)ethoxy)pyridin-3-yl)-1H-pyrazol-1-yl)piperidin-1-yl)-15-oxo-3,6,9,12-tetraoxapentadecyl)amino)-2-(2,6-dioxopiperidin-3-yl)isoindoline-1,3-dione] has a DC50 of 100 to 500 nM.

Same assay, conditions: H3122 cells, western blot

`C[C@@H](Oc1cc(-c2cnn(C3CCN(C(=O)CCCCNc4cccc5c4C(=O)N(C4CCC(=O)NC4=O)C5=O)CC3)c2)cnc1N)c1c(Cl)ccc(F)c1Cl` (stereo partly drawn) [SIAIS151082, 4-((5-(4-(4-(6-amino-5-((R)-1-(2,6-dichloro-3-fluorophenyl)ethoxy)pyridin-3-yl)-1H-pyrazol-1-yl)piperidin-1-yl)-5-oxopentyl)amino)-2-(2,6-dioxopiperidin-3-yl)isoindoline-1,3-dione] was tested, and the “concentration at which ALK protein level was reduced” value was “about 50 nM”.

From US11771709B2, “ALK protein degradation agent and anti-tumor application thereof” (ShanghaiTech University, priority 2017, dated 2023)
